In patent publication US4370327A, “Cephalosporins and pharmaceutical compositions” (Boehringer Ingelheim GmbH, priority 1980, dated 1983):
Values after ≈ are worked out from the molar mass of the structure shown.

How the values were obtained:
[1] = test system: E. coli ATCC 11775; assay: in vivo test against experimental intraperitoneal infection in mice; parameters: species or system E. coli in female mice of the NMRI strain; details: Escherichia coli, ATCC11775, sc, 168 h; subcutaneous, one treatment 1 hour after i.p. infection, observation 7 days; read-out: ED50 (dose at which 50% of the animals survived)
Experimental: A number of the compounds according to the invention were tested in vivo against experimental infections in mice. E. coli ATCC 11775 was used as the pathogenic bacteria. An intraperitoneal infection was produced with 0.2 ml of a bacterial suspension (with 5% mucin), which corresponds to about 1.4×10^6 E. coli bacteria per mouse. Female mice of the NMRI strain were divided up into groups of 10 animals. Two groups were untreated, and the other groups were treated with various doses of the cephalosporins according to the invention, administered subcutaneously, to determine the ED50 (does at which 50% of the animals survived). One treatment was administered 1 hour after the infection.
In both cases, the observation period was 7 days.

[2] = test system: Klebsiella pneumoniea BC 6; assay: serial dilution test in the microtiter system, minimum inhibitory concentration; assay type: cell-based, Klebsiella pneumoniae; details: BC6, Klebs. pneum. BC 6, 37° C., 18 to 20 hours
Experimental: (§1) The tests were performed using the serial dilution test in the microtiter system. The effect of the text compounds on bacteriostasis was examined at the following concentrations: 128, 64, 32, 16, 8, 4, 2, 1, 0.5, 0.25, 0.12, 0.06, 0.03, and 0.015 μg/ml. The nutrient medium consisted of 10 gm of peptone, 8 g of meat extract oxoid, 3 g of sodium chloride, and 2 g of sec. sodium phosphate diluted with distilled water to […] (pH 7.2-7.4). The age of the primary cultures was approximately 20 hours. The standardization of the bacteria suspension was effected using a photometer according to the method of Eppendorf (test tube .phi. 14 mm, filter 546 nm), using for comparison a barium sulfate suspension formed by the addition of 3.0 ml of 1% barium chloride solution to 97 ml of 1% sulfuric acid. After the standardization, the test pathogens were diluted further in a ratio of 1:1500 with a common salt solution.
(§2) Sixteen milligrams of a particular test compound were put into a 10 ml measuring flask, and the flask was subsequently filled to the mark with solvent. Further dilutions in the series were made with distilled water or the appropriate solvent.
(§3) The cavities of the microtiter plates were filled sequentially with 0.2 ml of nutrient medium, 0.01 ml of the appropriate test compound solution, and then 0.01 ml of the standardized bacteria suspension. The bacteria were incubated at 37° C. for from 18 to 20 hours. Control tests using only the solvent were carried out simultaneously.
(§4) The measurement was carried out macroscopically to determine the minimum inhibitory concentration (the lowest, still bacteriostatically effective concentration).
(§5) The following test organisms were used:
(§6) Staphylococcus aureus SG 511, Escherichia coli ATCC 11 775, Pseudomonas aeruginosa Hamburgensis and Pseudomonas aeruginosa Walter, Serratia marcescens ATCC 13 880, Klebsiella pneumoniea ATCC 10 031 and BC 6, Proteus mirabilis BC 17, Proteus rettgeri BC 7, Enterobacter cloaceae ATCC 13 047, and E. coli R+TEM (β-lactamase carrier), and Klebsiella pneumoniae 1082 E (β-lactamase carrier).
(§7) Representative compounds of the compounds of Formula I were tested. Those representative compounds comprised sodium salts of compounds of Formula I wherein R, D, and Y had the meanings set forth in the following table: […]

[3] = test system: Klebsiella pneumoniea ATCC 10 031; assay: as above; assay type: cell-based, Klebsiella pneumoniae; details: Klebs. pneum. ATCC 10031, 37° C., 18 to 20 hours
Experimental: as §1, §2, §3, §4, §5, §6, §7

[4] = test system: Enterobacter cloaceae ATCC 13 047; assay: as above; assay type: cell-based; details: Enterob. cloacae ATCC 13047, 37° C., 18 to 20 hours
Experimental: as §1, §2, §3, §4, §5, §6, §7

[5] = test system: Klebsiella pneumoniae 1082 E (β-lactamase carrier); assay: as above; assay type: cell-based; details: Klebs. pneum. 1082 E, 37° C., 18 to 20 hours
Experimental: as §1, §2, §3, §4, §5, §6, §7

[6] = test system: Serratia marcescens ATCC 13 880; assay: as above; assay type: cell-based; details: Serr. marcesc. ATCC 13880, 37° C., 18 to 20 hours
Experimental: as §1, §2, §3, §4, §5, §6, §7

[7] = test system: Pseudomonas aeruginosa Hamburgensis; assay: as above; assay type: cell-based; details: Pseud. aeru Hbg., 37° C., 18 to 20 hours
Experimental: as §1, §2, §3, §4, §5, §6, §7

[8] = test system: Staphylococcus aureus SG 511; assay: as above; assay type: cell-based; details: SG511, St. aureus SG 511, 37° C., 18 to 20 hours
Experimental: as §1, §2, §3, §4, §5, §6, §7

[9] = test system: Escherichia coli ATCC 11 775; assay: as above; assay type: cell-based; details: E. coli ATCC 11775, 37° C., 18 to 20 hours
Experimental: as §1, §2, §3, §4, §5, §6, §7

[10] = test system: Proteus mirabilis BC 17; assay: as above; assay type: cell-based; details: BC17, Prot. mir. BC 17, 37° C., 18 to 20 hours
Experimental: as §1, §2, §3, §4, §5, §6, §7

[11] = test system: Pseudomonas aeruginosa Walter; assay: as above; assay type: cell-based; details: Pseud. aeru Walter, 37° C., 18 to 20 hours
Experimental: as §1, §2, §3, §4, §5, §6, §7

[12] = test system: Prot. rettg. BC 17; assay: as above; assay type: cell-based, Proteus rettgeri; details: Providencia rettgeri, 37° C., 18 to 20 hours
Experimental: as §1, §2, §3, §4, §5, §6, §7

Row | Structure (SMILES) | ED50 [1] [mg/kg] | MIC [2] [µg/mL] | MIC [3] [µg/mL] | MIC [4] [µg/mL] | MIC [5] [µg/mL] | MIC [6] [µg/mL] | MIC [7] [µg/mL] | MIC [8] [µg/mL] | MIC [9] [µg/mL] | MIC [10] [µg/mL] | MIC [11] [µg/mL] | MIC [12] [µg/mL]
1 | Cn1nnnc1SCC1=C(C(=O)O)N2C(=O)[C@@H](NC(=O)C(NC(=O)Nc3cnc(C4CC4)nc3O)c3csc(N)n3)[C@H]2SC1 (some centres unmarked) [A] | 0.5 | 0.06 (≈ 0.0908 µM) | 0.03 (≈ 0.0454 µM) | 0.5 (≈ 0.757 µM) | 32 (≈ 48.4 µM) | 0.25 (≈ 0.378 µM) | 32 (≈ 48.4 µM) | 1 (≈ 1.51 µM) | 0.03 (≈ 0.0454 µM) | 0.03 (≈ 0.0454 µM) | 32 (≈ 48.4 µM) | 0.12 (≈ 0.182 µM)
2 | CCCNc1ncc(NC(=O)NC(C(=O)N[C@@H]2C(=O)N3C(C(=O)O)=C(CSc4nnnn4C)CS[C@H]23)c2csc(N)n2)c(O)n1 (some centres unmarked) [B] | – | 0.06 (≈ 0.0885 µM) | 0.12 (≈ 0.177 µM) | 0.25 (≈ 0.369 µM) | 16 (≈ 23.6 µM) | 0.25 (≈ 0.369 µM) | 32 (≈ 47.2 µM) | 1 (≈ 1.48 µM) | 0.06 (≈ 0.0885 µM) | 0.06 (≈ 0.0885 µM) | 32 (≈ 47.2 µM) | 0.12 (≈ 0.177 µM)
3 | Cn1nnnc1SCC1=C(C(=O)O)N2C(=O)[C@@H](NC(=O)C(NC(=O)Nc3cnc(NCCCO)nc3O)c3csc(N)n3)[C@H]2SC1 (some centres unmarked) [C] | – | 0.12 (≈ 0.173 µM) | 0.25 (≈ 0.36 µM) | 0.5 (≈ 0.721 µM) | 32 (≈ 46.1 µM) | 0.25 (≈ 0.36 µM) | 32 (≈ 46.1 µM) | 2 (≈ 2.88 µM) | 0.06 (≈ 0.0865 µM) | 0.06 (≈ 0.0865 µM) | 32 (≈ 46.1 µM) | 0.25 (≈ 0.36 µM)
4 | CCN1CCN(C(=O)N[C@@H](C(=O)N[C@@H]2C(=O)N3C(C(=O)O)=C(CSc4nnnn4C)CS[C@H]23)c2ccc(O)cc2)C(=O)C1=O [Cefaperazone (T 1551), reference compound] | 3.1 | – | – | – | – | – | – | – | – | – | – | –
5 | Cc1nnc(SCC2=C(C(=O)O)N3C(=O)[C@@H](NC(=O)Cn4cnnn4)[C@H]3SC2)s1 [Cefazoline, reference compound] | – | 2 (≈ 4.4 µM) | 1 (≈ 2.2 µM) | > 128 | > 128 | > 128 | > 128 | 0.06 (≈ 0.132 µM) | 4 (≈ 8.8 µM) | 4 (≈ 8.8 µM) | > 128 | > 128
6 | CO/N=C(\C(=O)N[C@@H]1C(=O)N2C(C(=O)O)=C(COC(N)=O)CS[C@H]12)c1ccco1 [Cefuroxime, reference compound] | > 100 | 4 (≈ 9.43 µM) | 2 (≈ 4.71 µM) | 32 (≈ 75.4 µM) | – | 8 (≈ 18.9 µM) | > 128 | 1 (≈ 2.36 µM) | 8 (≈ 18.9 µM) | 0.5 (≈ 1.18 µM) | > 128 | 2 (≈ 4.71 µM)
7 | CC(=O)OCC1=C(C(=O)O)N2C(=O)[C@@H](NC(=O)C(NC(=O)Nc3cnc(Nc4ccc(S(N)(=O)=O)cc4)nc3O)c3csc(N)n3)[C@H]2SC1 (some centres unmarked) [Compound E] | 0.1 to 0.3 | 0.06 (≈ 0.0817 µM) | 0.06 (≈ 0.0817 µM) | 0.25 (≈ 0.34 µM) | 32 (≈ 43.6 µM) | 0.12 (≈ 0.163 µM) | 16 (≈ 21.8 µM) | 0.5 (≈ 0.68 µM) | 0.03 (≈ 0.0408 µM) | 0.12 (≈ 0.163 µM) | 8 (≈ 10.9 µM) | 0.12 (≈ 0.163 µM)
8 | Cn1nnnc1SCC1=C(C(=O)O)N2C(=O)[C@@H](NC(=O)C(NC(=O)Nc3cnc(NC4CCC(O)CC4)nc3O)c3csc(N)n3)[C@H]2SC1 (some centres unmarked) [D] | < 0.3 | 0.06 (≈ 0.0818 µM) | 0.06 (≈ 0.0818 µM) | 0.25 (≈ 0.341 µM) | 32 (≈ 43.6 µM) | 0.25 (≈ 0.341 µM) | 16 (≈ 21.8 µM) | 2 (≈ 2.73 µM) | 0.06 (≈ 0.0818 µM) | 0.12 (≈ 0.164 µM) | 16 (≈ 21.8 µM) | 0.12 (≈ 0.164 µM)
9 | Cn1nnnc1SCC1=C(C(=O)O)N2C(=O)[C@@H](NC(=O)C(NC(=O)Nc3cnc(Nc4ccc(S(N)(=O)=O)cc4)nc3O)c3csc(N)n3)[C@H]2SC1 (some centres unmarked) [F] | – | 0.12 (≈ 0.152 µM) | 0.12 (≈ 0.152 µM) | 0.5 (≈ 0.632 µM) | 64 (≈ 80.9 µM) | 0.5 (≈ 0.632 µM) | 16 (≈ 20.2 µM) | 1 (≈ 1.26 µM) | 0.06 (≈ 0.0759 µM) | 0.25 (≈ 0.316 µM) | 16 (≈ 20.2 µM) | 0.25 (≈ 0.316 µM)
10 | Cn1nnnc1SCC1=C(C(=O)O)N2C(=O)[C@@H](NC(=O)C(NC(=O)Nc3cnc(NCc4ccc(O)cc4)nc3O)c3csc(N)n3)[C@H]2SC1 (some centres unmarked) [G] | < 0.2 | 0.03 (≈ 0.0404 µM) | 0.06 (≈ 0.0809 µM) | 0.12 (≈ 0.162 µM) | 16 (≈ 21.6 µM) | 0.12 (≈ 0.162 µM) | 16 (≈ 21.6 µM) | 0.5 (≈ 0.674 µM) | 0.03 (≈ 0.0404 µM) | 0.03 (≈ 0.0404 µM) | 8 (≈ 10.8 µM) | 0.06 (≈ 0.0809 µM)
